Key:
[1] = test system: memory disruption induced by hypoxia, male CD rats; assay: Rat Passive Avoidance (PA) Hypoxia Induced Amnesia; assay type: in vivo, rat (male CD); settings: Table II; SC; median retention latency vs vehicle
Excerpt: Rat Passive Avoidance (PA) Hypoxia Induced Amnesia:
Unfasted male CD rats, weighing between 165-210 grams, were trained in a PA apparatus using the following procedure: rats were placed in the clear side of the two compartment chamber and allowed 90 seconds to enter the dark compartment. Ten seconds after entering the dark chamber, a 3 second footshock (1.0 mA) was applied to the grid floor followed by an additional 10 second delay, and another 3 second footshock was applied. Retentions were tested 4 hours later. The rats were allowed 300 seconds to enter the dark compartment; time was taken. Memory disruption was induced by exposing the rats to a gas mixture containing 6.5% oxygen supplemented with nitrogen for 30 minutes before passive avoidance training. Doses of the test compound were administered (0.1 ml/100 g, SC.) relative to time of PA training.

[2] = test system: stimulus-induced acetylcholine release, slices from the parietal cortex; assay: Neurotransmitter (ACh) release assay, rat cortex slices, K+ stimulated; assay type: cell-based, rat (male Wistar); settings: Table II, 10 μM, % increase of drug-induced ACh release;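 further: S2/S1 ratio relative to drug-free control slices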
Procedure: The neurotransmitter release activities of the compounds of this invention were determined using standard biochemical assay procedures for example, the neurotransmitter release assay as described below.
Neurotransmitter release assay.
The neurotransmitter (Ach) release activities of the compounds of this invention were determined by the assay as described by Nickolson, et al., Drug Development Research, (1990) 19: 285-300, a modification of the procedure described by Mulder, et al., Brain Res., (1974) 70: 372.
Male Wistar rats (Charies River) weighing 175-200 grams were used. Rats were decapitated and brains were dissected immediately. Slices (0.3 mm thick) from the parietal cortex were prepared (approximately 100 mg wet weight) and were incubated in 10 ml KrebsRinger medium (KR) containing NaCl (116 mM), KCl (3 mM), CaCl2 (1.3 mM), MgCl2 (1.2 mM), KH2 PO4 (1.2 mM), Na2 SO4 (1.2 mM), NaHCO3 (25.0 mM), and glucose (11.0 mM), to which was added 10 uCi ^3 H-choline (specific activity approximately 35 Ci/mM; NEN) and […] unlabeled choline to give a final concentration of one micromole. The brain preparations were incubated for 30 min. at 37° C. under a steady flow of 95% O2 /5% CO2. Under these conditions, part of the radioactive choline taken up by the preparation was converted into radioactive acetylcholine (ACh) by the cholinergic nerve endings stored in synaptic vesicles, and released upon depolarization by high potassium ion (K+) containing media.
After labelling of the ACh stores, the slices were washed three times with non-radioactive KR medium and transferred to a superfusion apparatus to measure the drug effects on ACh release. The superfusion apparatus consisted of 10 thermostated glass columns of 5 mm diameter that were provided with GF/F glass fiber filters to support the slices (approximately 10 mg tissue/column). Superfusion was carried out in KR-medium (0.3 ml/min.) containing […] hemicholine-3 (HC-3). The HC-3 prevents the reuptake of choline formed during the superfusion from phospholipids and released ACh, which would be converted into unlabeled ACh and released in preference to the preformed labeled ACh. The medium was delivered by a 25-channel peristaltic pump (Ismatec by Brinkman) and warmed to 37° C. in a thermostated stainless steel coil before entering the superfusion column. Each column was provided with a 4-way slider valve (Beckmann instruments) which allowed rapid change of low to high K+/KR-medium, and with two 10-channel 3-way valves that were used to change from drug-free to drug-containing low and high K+/KR-medium. After 15 min. of washout of non-specifically bound radioactivity, collection of 4 min. fractions was initiated. After three 4 min. collections, the original medium was changed to a KR-medium in which the KCl concentration had been increased to 25 mM (high K+ medium) (S1). Depolarization-induced stimulation of release by high K+/KR-medium lasted for 4 min. Drug free low and high K+/KR-media were then substituted by drug- and vehicle-containing low- and high-K+/KR-medium, and superfusion was continued for three 4 min. collections with low K+/KR-medium, one 4 min. collection with high K+/KR-medium (s2), and two 4 min. collections with low K+/KR-medium.
Drug was added to the media by 100-fold dilutions of appropriate concentrations of the drug (in 0.9% saline) with either low- or high-K+/KR-medium. For comparative purposes, linopirdine was also run.
All superfusion fractions were collected in liquid scintillation counting vials. After superfusion, the slices were removed from the superfusion columns and extracted with 1.0 ml of 0.1N HCl. Liquiscint (NEN) counting fluid (12 ml) was added to superfusion fractions and extracts, and the samples were counted in a Packard Tricarb Liquid Scintillation Counter. No corrections were made for quenching. […]

[3] = test system: ACh level in the rat hippocampus; assay: Microdialysis, ACh levels in the rat hippocampus in vivo; design: species or system rat (male Wistar); settings: Table IV
Outline: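 Male Wistar rats with dorsal hippocampal probes were perfused with aCSF containing 100 μM physostigmine, and 20-min dialysates were assayed by HPLC-EC. After 3 baseline samples, drug or vehicle was given and sampling continued 3 h. ACh peak heights are expressed as percent change over mean baseline.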

SMILES: O=C1N(c2ccccc2)c2ccccc2C1(Cc1ccncc1)Cc1ccncc1 [linopirdine, 3,3-bis-(4-pyridinylmethyl)-1-phenylindolin-2-one, reference compound]
- PA Hypoxia [1]: Active
- activation at 10 µM [2]: 408%
- AUC, Area % under the curve ([3]; 5 mg/kg, vehicle water): 83 ± 73%
- Peak, maximal % increase of ACh release over baseline ([3]; 5 mg/kg, vehicle water): 50 ± 16%
- time of Peak after administration ([3]; 5 mg/kg, vehicle water): 40 min
- Duration, minutes of release above statistical significance ([3]; 5 mg/kg, vehicle water, NSP = no significant points): 20 min
- AUC, Area % under the curve ([3]; 10 mg/kg, vehicle methocel): 212 ± 61%
- Duration, minutes of release above statistical significance ([3]; 10 mg/kg, vehicle methocel): 100 min
- Peak, maximal % increase of ACh release over baseline ([3]; 10 mg/kg, vehicle methocel): 62 ± 15%
- time of Peak after administration ([3]; 10 mg/kg, vehicle methocel): 40 min
- AUC, Area % under the curve ([3]; 10 mg/kg, vehicle water): 191 ± 68%
- Duration, minutes of release above statistical significance ([3]; 10 mg/kg, vehicle water): 60 min
- Peak, maximal % increase of ACh release over baseline ([3]; 10 mg/kg, vehicle water): 56 ± 7%
- time of Peak after administration ([3]; 10 mg/kg, vehicle water): 40 min
- AUC, Area % under the curve ([3]; 20 mg/kg, vehicle methocel): 600 ± 71%
- Duration, minutes of release above statistical significance ([3]; 20 mg/kg, vehicle methocel): 140 min
- Peak, maximal % increase of ACh release over baseline ([3]; 20 mg/kg, vehicle methocel): 117 ± 36%
- time of Peak after administration ([3]; 20 mg/kg, vehicle methocel): 40 min
- AUC, Area % under the curve ([3]; 20 mg/kg, vehicle water): 315 ± 108%
- Duration, minutes of release above statistical significance ([3]; 20 mg/kg, vehicle water): 100 min
- Peak, maximal % increase of ACh release over baseline ([3]; 20 mg/kg, vehicle water): 68 ± 26%
- time of Peak after administration ([3]; 20 mg/kg, vehicle water): 100 min
